Consider 30 compounds from US9802937B2, “Substituted pyrazolo{4,3-D}pyrimidines as kinase inhibitors” (ORIGENIS GMBH, priority 2011, dated 2017).

One may read the IC50 as the point on the concentration scale where inhibition reaches its midpoint.

One assay deals with T1, SYK kinase (Homo sapiens, UniProt P43405).
T1 construct: purchased Invitrogen, Carlsbad
Put plainly: SYK Assay (OMNIA KINASE ASSAY, SOX peptide fluorescence). In kind it is biochemical. To be noted: apparent Ki calculated from the IC50 using the Cheng-Prusoff equation; 1 mM ATP, 30° C.; read-out: SYK Activities: Ki. In a few lines:
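Apparent Ki values are derived by Cheng-Prusoff from IC50s of sigmoidal fits of reaction rate against compound concentration. Rates come from chelation-enhanced SOX fluorescence (λex 360/λem 485 nm, read every 30 s over 30 min) as the kinase phosphorylates 10 µM Omnia Tyr 7 peptide at 30 °C, with 1 mM ATP and 0.2 mM DTT.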

The target in the next assay is LRRK2 (Homo sapiens, UniProt Q5S007). Put plainly: LRRK2-LRRK2 G2019S-Assay (LanthaScreen Eu Kinase Binding Assay). To be noted: 5 nM LRRK2 or their mutants, 10 nM tracer 236, RT 1 h; read-out: LRRK2 Activities: IC50. The method, then: In the assay LanthaScreen™ Eu Kinase Binding Assay by Invitrogen Corporation (Carlsbad) the effect of invention of a compound on the phosphorylation is determined by measurement of fluorescence intensity emission ratio based on the binding and displacement of a proprietary, Alexa Fluor® 647-labeled, ATP-competitive kinase inhibitor scaffold (kinase tracer) to the kinase of interest. Binding of the tracer to the kinase is detected using a europium-labeled anti-tag antibody, which binds to the kinase of interest. Simultaneous binding of both the tracer and antibody to the kinase results in a high degree of FRET (fluorescence resonance energy transfer) from the europium (Eu) donor fluorophore to the Alexa Fluor® 647 acceptor fluorophore on the kinase tracer. Binding of an inhibitor to the kinase competes for binding with the tracer, resulting in a loss of FRET. The fluorescence intensity ratio is directly proportional to the amount of peptide phosphorylation.
To the wells of an 384 well small volume plate (Greiner, Frickenhausen) are added (i) the compound under test in 5% DMSO/distilled water (5 μl), (ii) 5 μl of the kinase antibody mixture resulting in a final concentration 5 nM LRRK2 or their mutants, 2 nM EU-Anti-GST antibody in 1× kinase buffer A. The reaction was started with addition of (iii) 5 μl resulting in a final concentration of 10 nM tracer 236. The assay plate was incubated at RT for 1 h and fluorescence intensitiy readings were collected using a TECAN M1000 at two wavelengthes of λex 340/λem 615 nm and λex 340/λm 665 nm with a delay time of 100 μs and an integration time of 200 μs after 60 minutes. The emission ratio was calculated by division of the acceptor/tracer emission ([…]) by the antibody/donor emission ([…]). The inhibitor concentration was plotted versus the emission ratio to determine the IC50 using XLFit 5.0 (IDBS, Guildford) to fit to a sigmoidal dose response curve with a variable slope.
(Time-resolved FRET reads energy transfer from a long-lived donor to a nearby acceptor.)

Chain of LRRK2 (Q5S007 970-2527 limits assumed): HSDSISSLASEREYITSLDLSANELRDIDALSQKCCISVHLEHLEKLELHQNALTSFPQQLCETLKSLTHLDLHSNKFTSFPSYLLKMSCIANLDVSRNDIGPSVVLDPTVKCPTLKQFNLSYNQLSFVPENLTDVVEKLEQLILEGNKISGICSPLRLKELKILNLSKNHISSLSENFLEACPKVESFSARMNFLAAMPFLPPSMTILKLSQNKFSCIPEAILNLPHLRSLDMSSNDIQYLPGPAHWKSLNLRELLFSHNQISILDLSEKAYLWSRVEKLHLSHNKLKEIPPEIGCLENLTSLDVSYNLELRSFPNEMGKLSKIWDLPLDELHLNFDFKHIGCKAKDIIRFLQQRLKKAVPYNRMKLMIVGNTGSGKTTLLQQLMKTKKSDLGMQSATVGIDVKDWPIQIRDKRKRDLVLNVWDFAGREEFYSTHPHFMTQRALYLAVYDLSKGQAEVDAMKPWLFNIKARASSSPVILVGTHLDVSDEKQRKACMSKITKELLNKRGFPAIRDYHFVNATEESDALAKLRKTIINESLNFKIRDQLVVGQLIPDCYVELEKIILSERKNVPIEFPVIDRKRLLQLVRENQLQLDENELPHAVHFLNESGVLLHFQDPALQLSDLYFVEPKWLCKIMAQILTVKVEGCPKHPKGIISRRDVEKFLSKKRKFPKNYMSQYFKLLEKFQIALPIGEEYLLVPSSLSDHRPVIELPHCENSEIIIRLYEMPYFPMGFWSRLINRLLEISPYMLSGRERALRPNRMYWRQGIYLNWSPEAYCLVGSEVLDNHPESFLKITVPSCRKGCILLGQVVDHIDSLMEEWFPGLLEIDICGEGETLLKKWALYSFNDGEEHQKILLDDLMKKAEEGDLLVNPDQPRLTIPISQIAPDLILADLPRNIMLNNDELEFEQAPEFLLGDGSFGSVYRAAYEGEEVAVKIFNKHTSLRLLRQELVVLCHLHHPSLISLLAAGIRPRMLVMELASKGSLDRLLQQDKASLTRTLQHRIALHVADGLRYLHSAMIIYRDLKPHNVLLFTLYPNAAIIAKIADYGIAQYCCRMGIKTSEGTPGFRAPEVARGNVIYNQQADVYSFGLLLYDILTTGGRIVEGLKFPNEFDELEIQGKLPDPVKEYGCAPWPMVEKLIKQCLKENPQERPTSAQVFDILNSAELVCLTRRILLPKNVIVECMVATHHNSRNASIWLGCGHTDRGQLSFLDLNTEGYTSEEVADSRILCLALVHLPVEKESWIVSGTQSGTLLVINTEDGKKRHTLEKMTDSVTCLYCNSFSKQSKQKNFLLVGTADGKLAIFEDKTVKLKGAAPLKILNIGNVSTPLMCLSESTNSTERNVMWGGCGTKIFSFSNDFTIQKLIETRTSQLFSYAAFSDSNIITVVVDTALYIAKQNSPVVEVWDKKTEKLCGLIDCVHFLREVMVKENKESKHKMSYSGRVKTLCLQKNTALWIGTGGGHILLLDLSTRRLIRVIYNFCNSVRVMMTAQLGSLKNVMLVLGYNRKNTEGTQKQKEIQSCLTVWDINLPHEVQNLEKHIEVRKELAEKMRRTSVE

For the compound `c1ccc(-c2nc(Nc3ccc4[nH]ncc4c3)c3[nH]ncc3n2)cc1` [Example #1, N-(1H-indazol-5-yl)-5-phenyl-1H-pyrazolo[4,3-d]pyrimidin-7-amine], the Ki at SYK kinase was below 0.01 µM. The concentration for half-maximal inhibition (IC50) at LRRK2 was 0.1 to 1 µM.
For `c1ccc(-c2nc(Nc3ccc4[nH]nnc4c3)c3[nH]ncc3n2)cc1` [Example #2, N-(1H-benzo[d][1,2,3]triazol-5-yl)-5-phenyl-1H-pyrazolo[4,3-d]pyrimidin-7-amine], in that order: below 0.01 µM and 0.1 to 1 µM.
In the same order, the values of `CN(C)c1ccc(Nc2nc(-c3ccccc3)nc3cn[nH]c23)cc1` [Example #4, N1,N1-dimethyl-N4-(5-phenyl-1H-pyrazolo[4,3-d]pyrimidin-7-yl)benzene-1,4-diamine] are below 0.01 µM and 0.1 to 1 µM.
For `COc1ccc(Nc2nc(-c3ccccc3)nc3cn[nH]c23)cc1OC` [Example #6, N-(3,4-dimethoxyphenyl)-5-phenyl-1H-pyrazolo[4,3-d]pyrimidin-7-amine], in that order: below 0.01 µM and 0.1 to 1 µM.
For `c1ccc(-c2nc(Nc3ccc(N4CCOCC4)cc3)c3[nH]ncc3n2)cc1` [Example #7, N-(4-morpholinophenyl)-5-phenyl-1H-pyrazolo[4,3-d]pyrimidin-7-amine], the Ki on SYK kinase was below 0.01 µM. Moreover, the IC50 on LRRK2 lay within 0.1 to 1 µM.
In the same order, the values of `Cc1nc2cc(Nc3nc(-c4ccccc4)nc4cn[nH]c34)ccc2[nH]1` [Example #9, N-(2-methyl-1H-benzo[d]imidazol-5-yl)-5-phenyl-1H-pyrazolo[4,3-d]pyrimidin-7-amine] are 0.01 to 0.1 µM and 0.1 to 1 µM.
In the same order, the values of `O=C(O)c1ccc(Nc2nc(-c3ccccc3)nc3cn[nH]c23)cc1` [Example #10, 4-((5-phenyl-1H-pyrazolo[4,3-d]pyrimidin-7-yl)amino)benzoic-acid] are below 0.01 µM and 0.1 to 1 µM.
In the same order, the values of `c1cc2[nH]ncc2cc1Nc1nc(-c2ccc(N3CCCC3)nc2)nc2cn[nH]c12` [Example #14, N-(1H-indazol-5-yl)-5-(6-(pyrrolidin-1-yl)pyridin-3-yl)-1H-pyrazolo[4,3-d]pyrimidin-7-amine] are 0.01 to 0.1 µM and 0.1 to 1 µM.
As to `c1cc(-c2nc(Nc3ccc4cn[nH]c4c3)c3[nH]ncc3n2)ccn1` [Example #16, N-(1H-indazol-6-yl)-5-(pyridin-4-yl)-1H-pyrazolo[4,3-d]pyrimidin-7-amine], on SYK kinase, the Ki was below 0.01 µM. Besides, the IC50 at LRRK2 lay in the range of 0.1 to 1 µM.
As to `CN(C)c1ccc(Nc2nc(-c3ccncc3)nc3cn[nH]c23)cc1` [Example #17, N1,N1-dimethyl-N4-(5-(pyridin-4-yl)-1H-pyrazolo[4,3-d]pyrimidin-7-yl)benzene-1,4-diamine], the Ki at SYK kinase is 0.01 to 0.1 µM. Besides, the concentration for half-maximal inhibition (IC50) at LRRK2 was in the range of 0.1 to 1 µM.
For `COc1ccc(Nc2nc(-c3ccncc3)nc3cn[nH]c23)cc1OC` [Example #18, N-(3,4-dimethoxyphenyl)-5-(pyridin-4-yl)-1H-pyrazolo[4,3-d]pyrimidin-7-amine], the Ki on SYK kinase was 0.01 to 0.1 µM. Also, the IC50 at LRRK2 lay in the range of 0.1 to 1 µM.
For `COc1ccc(-c2nc(Nc3ccc4cn[nH]c4c3)c3[nH]ncc3n2)cc1OC` [Example #22, 5-(3,4-dimethoxyphenyl)-N-(1H-indazol-6-yl)-1H-pyrazolo[4,3-d]pyrimidin-7-amine], in that order: 0.01 to 0.1 µM and 0.1 to 1 µM.
For `COc1ccc(-c2nc(Nc3ccc(N(C)C)cc3)c3[nH]ncc3n2)cc1OC` [Example #23, N1-(5-(3,4-dimethoxyphenyl)-1H-pyrazolo[4,3-d]pyrimidin-7-yl)-N4,N4-dimethylbenzene-1,4-diamine], in that order: below 0.01 µM and 0.01 to 0.1 µM.
Take `COc1ccc(-c2nc(Nc3cc[nH]n3)c3[nH]ncc3n2)cc1OC` [Example #41, 5-(3,4-dimethoxyphenyl)-N-(1H-pyrazol-3-yl)-1H-pyrazolo[4,3-d]pyrimidin-7-amine]: at LRRK2, the IC50 lay within 0.1 to 1 µM.
On the same count and under the same terms, the same measure for `O=S(=O)(NC1CC1)c1cccc(Nc2nc(-c3cccs3)nc3cn[nH]c23)c1` [Example #261, N-cyclopropyl-3-((5-(thiophen-2-yl)-1H-pyrazolo[4,3-d]pyrimidin-7-yl)amino)benzenesulfonamide]: 0.1 to 1 µM.
On to `O=S(=O)(c1cccc(Nc2nc(-c3cccs3)nc3cn[nH]c23)c1)C(F)(F)F` [Example #267, 5-(thiophen-2-yl)-N-(3-((trifluoromethyl)sulfonyl)phenyl)-1H-pyrazolo[4,3-d]pyrimidin-7-amine], for which the Ki at SYK kinase was 0.1 to 1 µM.
The same measure, in the same setting: next, `COc1ccc(Nc2nc(-c3ccc(F)cc3)nc3cn[nH]c23)cc1OC` [Example #270, N-(3,4-dimethoxyphenyl)-5-(4-fluorophenyl)-1H-pyrazolo[4,3-d]pyrimidin-7-amine]: 0.01 to 0.1 µM.
`COc1ccc(Nc2nc(-c3ccc(F)c(F)c3)nc3cn[nH]c23)cc1OC` [Example #272, 5-(3,4-difluorophenyl)-N-(3,4-dimethoxyphenyl)-1H-pyrazolo[4,3-d]pyrimidin-7-amine]: the Ki on SYK kinase was 0.1 to 1 µM.
As for `Fc1ccc(-c2nc(Nc3ccc(N4CCOCC4)cc3)c3[nH]ncc3n2)cc1F` [Example #273, 5-(3,4-difluorophenyl)-N-(4-morpholinophenyl)-1H-pyrazolo[4,3-d]pyrimidin-7-amine], the Ki on SYK kinase was 0.01 to 0.1 µM.
On the same count and under the same terms, next, `COc1ccc(Nc2nc(-c3cc(F)cc(F)c3)nc3cn[nH]c23)cc1OC` [Example #274, 5-(3,5-difluorophenyl)-N-(3,4-dimethoxyphenyl)-1H-pyrazolo[4,3-d]pyrimidin-7-amine]: 0.1 to 1 µM; `COc1ccc(Nc2nc(-c3ccc(F)cc3F)nc3cn[nH]c23)cc1OC` [Example #285, 5-(2,4-difluorophenyl)-N-(3,4-dimethoxyphenyl)-1H-pyrazolo[4,3-d]pyrimidin-7-amine]: below 0.01 µM; `O=C1CCc2ccc(Nc3nc(-c4ccc5c(c4)NC(=O)CO5)nc4cn[nH]c34)cc2N1` [Example #287, 6-(7-((2-oxo-1,2,3,4-tetrahydroquinolin-7-yl)amino)-1H-pyrazolo[4,3-d]pyrimidin-5-yl)-2H-benzo[b][1,4]oxazin-3(4H)-one]: 0.01 to 0.1 µM.
Same read-out and setting: next, `CS(=O)(=O)c1ccccc1Nc1nc(-c2cccs2)nc2cn[nH]c12` [Example #291, N-(2-(methylsulfonyl)phenyl)-5-(thiophen-2-yl)-1H-pyrazolo[4,3-d]pyrimidin-7-amine]: 0.01 to 0.1 µM.
Still for that read-out and setting: next, `CN(C)Cc1cccc(Nc2nc(-c3cccs3)nc3cn[nH]c23)c1` [Example #292, N-(3-((dimethylamino)methyl)phenyl)-5-(thiophen-2-yl)-1H-pyrazolo[4,3-d]pyrimidin-7-amine]: 0.1 to 1 µM; `CC(=O)N1CCN(c2ccc(Nc3nc(-c4ccc5c(c4)NC(=O)CO5)nc4cn[nH]c34)cc2)CC1` [Example #298, 6-(7-((4-(4-acetylpiperazin-1-yl)phenyl)amino)-1H-pyrazolo[4,3-d]pyrimidin-5-yl)-2H-benzo[b][1,4]oxazin-3(4H)-one]: below 0.01 µM.
Regarding `COc1ccc(Nc2nc(-c3ccc4c(c3)NC(=O)CO4)nc3cn[nH]c23)cc1OC` [Example #299, 6-(7-((3,4-dimethoxyphenyl)amino)-1H-pyrazolo[4,3-d]pyrimidin-5-yl)-2H-benzo[b][1,4]oxazin-3(4H)-one], the Ki on SYK kinase is 0.01 to 0.1 µM.
On the same count and under the same terms, next, `CC(C)(C)c1cccc(Nc2nc(-c3cccs3)nc3cn[nH]c23)c1` [Example #305, N-(3-(tert-butyl)phenyl)-5-(thiophen-2-yl)-1H-pyrazolo[4,3-d]pyrimidin-7-amine]: 0.1 to 1 µM; `COC(=O)c1cccc(-c2nc(Nc3ccc4cn[nH]c4c3)c3[nH]ncc3n2)c1` [Example #307, methyl 3-(7-((1H-indazol-6-yl)amino)-1H-pyrazolo[4,3-d]pyrimidin-5-yl)benzoate]: 0.1 to 1 µM; `CN(C)Cc1ccc(Nc2nc(-c3cccc(N)c3)nc3cn[nH]c23)cc1` [Example #309, 5-(3-aminophenyl)-N-(4-((dimethylamino)methyl)phenyl)-1H-pyrazolo[4,3-d]pyrimidin-7-amine]: 0.01 to 0.1 µM.
On the same count and under the same terms, the same measure for `CN(C)Cc1cccc(Nc2nc(-c3ccccc3F)nc3cn[nH]c23)c1` [Example #312, N-(3-((dimethylamino)methyl)phenyl)-5-(2-fluorophenyl)-1H-pyrazolo[4,3-d]pyrimidin-7-amine]: 0.1 to 1 µM.
